The values below come from patent publication US10358446B2, “Bruton's tyrosine kinase inhibitors” (Zibo Biopolar Changsheng Pharmaceutical Co. Ltd., priority 2015, dated 2019).

The target of the experiment is BTK (Homo sapiens (Human), UniProt Q06187). In words: Btk kinase assay (HTRF). Conditions: [ATP]=80 μM, BTK=3.4 nM; read-out: BTK Inhibition. The format is biochemical. The procedure, abridged:
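HTRF kinase read-out (665/615 nm ratio, excitation 330 nm) after EDTA quench and 1 h detection incubation. Reaction: 3.4 nM BTK, ATP 80 μM, peptide substrate 1 μM, compound, HEPES pH 7.0 buffer, 1 h; IC50 derived using uninhibited and enzyme-free controls.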

Each structure is given as a SMILES string. Some results are limits rather than exact numbers.

Sequence of BTK (Q06187 whole entry, species assumed): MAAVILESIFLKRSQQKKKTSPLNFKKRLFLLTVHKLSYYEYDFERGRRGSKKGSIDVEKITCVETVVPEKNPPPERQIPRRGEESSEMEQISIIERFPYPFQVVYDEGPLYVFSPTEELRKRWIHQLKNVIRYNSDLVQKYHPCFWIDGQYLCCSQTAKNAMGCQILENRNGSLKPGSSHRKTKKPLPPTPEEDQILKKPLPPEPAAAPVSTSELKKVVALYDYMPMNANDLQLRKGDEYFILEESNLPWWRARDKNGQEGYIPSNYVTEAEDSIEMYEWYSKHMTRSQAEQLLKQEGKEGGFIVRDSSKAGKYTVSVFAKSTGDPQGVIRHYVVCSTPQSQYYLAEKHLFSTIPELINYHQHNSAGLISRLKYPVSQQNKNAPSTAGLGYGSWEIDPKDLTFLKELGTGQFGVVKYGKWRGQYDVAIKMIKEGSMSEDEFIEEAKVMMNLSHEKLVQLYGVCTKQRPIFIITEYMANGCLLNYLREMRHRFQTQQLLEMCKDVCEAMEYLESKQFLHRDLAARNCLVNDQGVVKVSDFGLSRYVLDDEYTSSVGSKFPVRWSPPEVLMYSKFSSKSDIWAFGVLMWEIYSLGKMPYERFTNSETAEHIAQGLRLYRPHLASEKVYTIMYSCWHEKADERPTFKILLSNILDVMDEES

With `C=CC(=O)N1CC[C@@H](n2c(=O)n(-c3ccc(Oc4ccc(OC)c(OC)c4)cc3)c3cnccc32)C1` [Example 40, (R)-1-(1-acryloylpyrrolidin-3-yl)-3-(4-(3,4-dimethoxyphenoxy)phenyl)-1H-imidazo[4,5-c]pyridin-2(3H)-one], the IC50 lay in the range of 10 to 100 nM.

On to `C=CC(=O)Nc1cccc(-n2c(=O)n(-c3ccc(OCc4ccccc4)c(Cl)c3)c3cnccc32)c1` [Example 224, N-(3-(3-(4-(benzyloxy)-3-chlorophenyl)-2-oxo-2,3-dihydro-1H-imidazo[4,5-c]pyridin-1-yl)phenyl)acrylamide], for which the IC50 is 100 to 1000 nM.

Take `C=CC(=O)N1CC[C@H](n2c(=O)n(-c3ccc(Oc4ccccc4)cc3)c3/c(=N/O)[nH]cnc32)C1` [Example 177, (S,Z)-9-(1-acryloylpyrrolidin-3-yl)-6-(hydroxyimino)-7-(4-phenoxyphenyl)-7,9-dihydro-1H-purin-8(6H)-one]: the IC50 is 100 to 1000 nM.

As for `O=C(/C=C/c1ccccc1)Nc1cccc(-n2c(=O)n(-c3ccc(Oc4ccccc4)cc3)c3cnccc32)c1` [Example 109, N-(3-(2-oxo-3-(4-phenoxyphenyl)-2,3-dihydro-1H-imidazo[4,5-c]pyridin-1-yl)phenyl)cinnamamide], the IC50 was ≥ 10000 nM.

Regarding `C=CC(=O)N1CC[C@H](n2c(=O)n(-c3ccc(Oc4ccccc4)cc3)c3c(/C(N)=N/O)nccc32)C1` [Example 179, (S,Z)-1-(1-acryloylpyrrolidin-3-yl)-N′-hydroxy-2-oxo-3-(4-phenoxyphenyl)-2,3-dihydro-1H-imidazo[4,5-c] pyridine-4-carboximidamide], the IC50 is ≥ 10000 nM.

`C=CC(=O)N1CCC[C@@H](n2c(=O)n(-c3ccc(Oc4cccc(F)c4C)cc3)c3cnccc32)C1` [Example 57, (R)-1-(1-acryloylpiperidin-3-yl)-3-(4-(3-fluoro-2-methylphenoxy)phenyl)-1H-imidazo[4,5-c]pyridin-2(3H)-one]: the IC50 fell in the range of 10 to 100 nM.

Turning to `C=CC(=O)Nc1cccc(-n2c(=O)n(-c3ccc(Oc4cccc(OCC)c4)cc3)c3cnccc32)c1` [Example 113, N-(3-(3-(4-(3-ethoxyphenoxy)phenyl)-2-oxo-2,3-dihydro-1H-imidazo[4,5-c]pyridin-1-yl)phenyl)acrylamide], the IC50 was 10 to 100 nM.

As to `C=CC(=O)N1CCC[C@@H](n2c(=O)n(-c3ccc(Oc4cccc(Cl)c4F)cc3)c3cnccc32)C1` [Example 59, (R)-1-(1-acryloylpiperidin-3-yl)-3-(4-(3-chloro-2-fluorophenoxy)phenyl)-1H-imidazo[4,5-c]pyridin-2(3H)-one], the IC50 lay within 10 to 100 nM.

Turning to `C=CC(=O)N1CC[C@@H](n2c(=S)n(-c3ccc(Oc4cccc(C)c4)cc3)c3cnccc32)C1` [Example 11, (R)-1-(3-(2-thioxo-3-(4-(m-tolyloxy)phenyl)-2,3-dihydro-1H-imidazo[4,5-c]pyridin-1-yl)pyrrolidin-1-yl)prop-2-en-1-one], the IC50 fell in the range of 100 to 1000 nM.

`C=CC(=O)Nc1cccc(-n2c(=O)n(-c3ccc(C(=O)NCc4cccc(OC)c4)cc3)c3cnccc32)c1` [Example 252, 4-(1-(3-acrylamidophenyl)-2-oxo-1H-imidazo[4,5-c]pyridin-3(2H)-yl)-N-(3-methoxybenzyl)benzamide]: the IC50 was 100 to 1000 nM.

With `C=CC(=O)Nc1cccc(-n2c(=O)n(-c3ccc(NC(=O)c4cccc(C)c4)cc3)c3cnccc32)c1` [Example 267, N-(4-(1-(3-acrylamidophenyl)-2-oxo-1H-imidazo[4,5-c]pyridin-3(2H)-yl)phenyl)-3-methylbenzamide], the IC50 is ≥ 10000 nM.

As for `C=CC(=O)Nc1cccc(-n2c(=O)n(-c3ccc(OCc4ccccc4)cc3)c3cnccc32)c1` [Example 239], the IC50 was 100 to 1000 nM.

Turning to `C=CC(=O)N1CC[C@@H](n2c(=O)n(-c3ccc(OCc4ccc(C(F)(F)F)cc4)cc3)c3cnccc32)C1` [Example 212, (R)-1-(1-acryloylpyrrolidin-3-yl)-3-(4-((4-(trifluoromethyl)benzyl)oxy)phenyl)-1H-imidazo[4,5-c]pyridin-2(3H)-one], the IC50 lay within 100 to 1000 nM.

`C=CC(=O)N1CCC[C@@H]1Cn1c(=O)n(-c2ccc(Oc3cccc(OC)c3F)cc2)c2cncc(C)c21` [Example 170, (R)-1-((1-acryloylpyrrolidin-2-yl)methyl)-3-(4-(2-fluoro-3-methoxyphenoxy)phenyl)-7-methyl-1H-imidazo[4,5-c]pyridin-2(3H)-one]: the IC50 lay in the range of 100 to 1000 nM.

On to `C=CC(=O)N1CC[C@@H](n2c(=O)n(-c3ccc(Oc4cccc(Cl)c4F)c(F)c3)c3cnccc32)C1` [Example 101, (R)-1-(1-acryloylpyrrolidin-3-yl)-3-(4-(3-chloro-2-fluorophenoxy)-3-fluorophenyl)-1,3-dihydro-2H-imidazo[4,5-c]pyridin-2-one], for which the IC50 was 10 to 100 nM.

For `C=CC(=O)Nc1cccc(-n2c(=O)n(-c3ccc(Oc4ccc(C(F)(F)F)cc4)c(Cl)c3)c3cnccc32)c1` [Example 111, N-(3-(3-(3-chloro-4-(4-(trifluoromethyl)phenoxy)phenyl)-2-oxo-2,3-dihydro-1H-imidazo[4,5-c]pyridin-1-yl)phenyl)acrylamide], the IC50 lay within 1000 to 10000 nM.

Take `C=CC(=O)Nc1cccc(-n2c(=O)n(-c3ccc(OCc4ccc(Cl)cc4Cl)cc3)c3cnccc32)c1` [Example 229, N-(3-(3-(4-((2,4-dichlorobenzyl)oxy)phenyl)-2-oxo-2,3-dihydro-1H-imidazo[4,5-c]pyridin-1-yl)phenyl)acrylamide]: the IC50 is 10 to 100 nM.

Take `C=CC(=O)Nc1cccc(-n2c(=O)n(-c3cccc(Oc4ccccc4C)c3)c3cnccc32)c1` [Example 88, N-(3-(2-oxo-3-(3-(o-tolyloxy)phenyl)-2,3-dihydro-1H-imidazo[4,5-c]pyridin-1-yl)phenyl)acrylamide]: the IC50 fell in the range of 10 to 100 nM.

`C=CC(=O)N1CCC[C@@H](n2c(=O)n(-c3ccc(Oc4cccc(C)c4F)cc3)c3cnccc32)C1` [Example 141, (R)-1-(1-acryloylpiperidin-3-yl)-3-(4-(2-fluoro-3-methylphenoxy)phenyl)-1H-imidazo[4,5-c]pyridin-2(3H)-one]: the IC50 is 10 to 100 nM.

Take `C=CC(=O)Nc1cccc(-n2c(=O)n(-c3ccc(Oc4cccc(F)c4)c(C)c3)c3cnccc32)c1` [Example 146, N-(3-(3-(4-(3-fluorophenoxy)-3-methylphenyl)-2-oxo-2,3-dihydro-1H-imidazo[4,5-c]pyridin-1-yl)phenyl)acrylamide]: the IC50 fell in the range of 10 to 100 nM.

As to `C=CC(=O)N1CC[C@@H](n2c(=O)n(-c3ccc(OCc4ccc(F)c(F)c4)c(Cl)c3)c3cnccc32)C1` [Example 201, (R)-1-(1-acryloylpyrrolidin-3-yl)-3-(3-chloro-4-((3,4-difluorobenzyl)oxy)phenyl)-1H-imidazo[4,5-c]pyridine-2(3H)-one], the IC50 fell in the range of 10 to 100 nM.

For `C=CC(=O)N1CC[C@@H](n2c(=O)n(-c3ccc(Oc4ccccc4)c(F)c3)c3cnccc32)C1` [Example 95, (R)-1-(1-acryloylpyrrolidin-3-yl)-3-(3-fluoro-4-phenoxyphenyl)-1,3-dihydro-2H-imidazo[4,5-c]pyridin-2-one], the IC50 was in the range of 10 to 100 nM.

`C=CC(=O)Nc1cccc(-n2c(=O)n(-c3ccc(NC(=O)c4ccc(OC)cc4)cc3)c3cnccc32)c1` [Example 264, N-(4-(1-(3-acrylamidophenyl)-2-oxo-1H-imidazo[4,5-c]pyridin-3(2H)-yl)phenyl)-4-methoxybenzamidee]: the IC50 fell in the range of 100 to 1000 nM.

With `C=CC(=O)Nc1cccc(-n2c(=O)n(-c3ccc(Oc4ccc(OC)c(OC)c4)cc3)c3cnccc32)c1` [Example 131, N-(3-(3-(4-(3,4-dimethoxyphenoxy)phenyl)-2-oxo-2,3-dihydro-1H-imidazo[4,5-c]pyridin-1-yl)phenyl)acrylamide], the IC50 was 10 to 100 nM.

In the case of `C=CC(=O)N1CC[C@@H](n2c(=O)n(-c3ccc(OCc4ccc(Cl)cc4Cl)c(Cl)c3)c3cnccc32)C1` [Example 208, (R)-1-(1-acryloylpyrrolidin-3-yl)-3-(3-chloro-4-((2,4-dichlorobenzyl)oxy)phenyl)-1H-imidazo[4,5-c]pyridin-2(3H)-one], the IC50 was in the range of 100 to 1000 nM.

On to `C=CC(=O)N1CC[C@@H](n2c(=O)n(-c3ccc(Oc4ccccc4)cc3)c3cncc(Cl)c32)C1` [Example 151, (R)-1-(1-acryloylpyrrolidin-3-yl)-7-chloro-3-(4-phenoxyphenyl)-1H-imidazo[4,5-c]pyridin-2(3H)-one], for which the IC50 was ≤ 10 nM.

Consider `C=CC(=O)Nc1cccc(-n2c(=O)n(-c3ccc(OCc4cccc(Cl)c4F)c(F)c3)c3cnccc32)c1` [Example 238, N-(3-(3-(4-((3-chloro-2-fluorobenzyl)oxy)-3-fluorophenyl)-2-oxo-2,3-dihydro-1H-imidazo[4,5-c]pyridin-1-yl)phenyl)acrylamide], for which the IC50 is 100 to 1000 nM.

Turning to `C=CC(=O)N1CC[C@@H](n2c(=O)n(-c3ccc(OCc4cc(F)cc(F)c4)c(Cl)c3)c3cnccc32)C1` [Example 207, (R)-1-(1-acryloylpyrrolidin-3-yl)-3-(3-chloro-4-((3,5-difluorobenzyl)oxy)phenyl)-1H-imidazo[4,5-c]pyridin-2(3H)-one], the IC50 lay in the range of 100 to 1000 nM.

For `C=CC(=O)N1CC[C@@H](n2c(=O)n(-c3ccc(Oc4cccc(F)c4)c(F)c3)c3cnccc32)C1` [Example 77, (R)-1-(1-acryloylpyrrolidin-3-yl)-3-(3-fluoro-4-(3-fluorophenoxy)phenyl)-1H-imidazo[4,5-c]pyridin-2(3H)-one], the IC50 is 10 to 100 nM.

On to `C=CC(=O)Nc1cccc(-n2c(=O)n(-c3ccc(Oc4cccc(OC)c4)c(Cl)c3)c3cnccc32)c1` [Example 86, N-(3-(3-(3-chloro-4-(3-methoxyphenoxy)phenyl)-2-oxo-2,3-dihydro-1H-imidazo[4,5-c]pyridin-1-yl)phenyl)acrylamide], for which the IC50 fell in the range of 100 to 1000 nM.

Turning to `C=CC(=O)Nc1cccc(-n2c(=O)n(-c3ccc(OCc4ccc(F)cc4)cc3)c3cnccc32)c1` [Example 247, N-(3-(3-(4-((4-fluorobenzyl)oxy)phenyl)-2-oxo-2,3-dihydro-1H-imidazo[4,5-c]pyridin-1-yl)phenyl)acrylamide], the IC50 was in the range of 10 to 100 nM.
